According to patent publication US20230398130A1, “METHODS AND COMPOSITIONS FOR DIFFERENTIATING STEM CELLS” (Massachusetts Institute of Technology, priority 2020, published 2023):

Legend:
ISC-enriched organoids [1] = test: Primary screen, 384-well 2.5-D organoid differentiation (ENR+CD, 6 days): carbachol-induced lysozyme secretion (LYZ.S); assay type: cell-based, murine; settings: primary screen; for Dose.FC.LYZ.S: FC vs plate median; for Z.LYZ.S: standard z score; for SSMD.LYZ.S: strictly standardized mean difference
Source text: (§1) High-throughput screening.

ISC-enriched organoids [2] = test: Primary screen, 384-well 2.5-D organoid differentiation (ENR+CD, 6 days): basal lysozyme secretion (LYZ.NS); assay type: cell-based, murine; settings: primary screen; for Dose.FC.LYZ.NS: FC vs plate median; for Z.LYZ.NS: standard z score; for SSMD.LYZ.NS: strictly standardized mean difference
Source text: as §1

ISC-enriched organoids [3] = test: Primary screen, 384-well 2.5-D organoid differentiation (ENR+CD, 6 days, Target Selective Inhibitor Library, vs whole-plate median): ATP (CellTiter-Glo 3D, CTG); settings: primary screen; for Dose.FC.CTG: FC vs plate median; for Z.CTG: standard z score; for SSMD.CTG: strictly standardized mean difference
[4] = 1st of the 4 dose lines of the treatment (dose not given)
[5] = 2nd of the 4 dose lines of the treatment (dose not given)
[6] = 3rd of the 4 dose lines of the treatment (dose not given)
[7] = 4th of the 4 dose lines of the treatment (dose not given)

Row | Structure (SMILES) | Z.LYZ.S (ISC-enriched organoids [1]; [4]) | Z.LYZ.S (ISC-enriched organoids [1]; [5]) | Z.LYZ.S (ISC-enriched organoids [1]; [6]) | Z.LYZ.S (ISC-enriched organoids [1]; [7]) | SSMD.LYZ.S (ISC-enriched organoids [1]; [4]) | SSMD.LYZ.S (ISC-enriched organoids [1]; [5]) | SSMD.LYZ.S (ISC-enriched organoids [1]; [6]) | SSMD.LYZ.S (ISC-enriched organoids [1]; [7]) | SSMD.LYZ.NS (ISC-enriched organoids [2]; [4]) | SSMD.LYZ.NS (ISC-enriched organoids [2]; [5]) | SSMD.LYZ.NS (ISC-enriched organoids [2]; [6]) | SSMD.LYZ.NS (ISC-enriched organoids [2]; [7]) | Z.CTG (ISC-enriched organoids [3]; Dose 0.08 uM) | Z.CTG (ISC-enriched organoids [3]; Dose 0.40 uM) | Z.CTG (ISC-enriched organoids [3]; Dose 2.00 uM) | Z.CTG (ISC-enriched organoids [3]; Dose 10.00 uM) | SSMD.CTG (ISC-enriched organoids [3]; [4]) | SSMD.CTG (ISC-enriched organoids [3]; [5]) | SSMD.CTG (ISC-enriched organoids [3]; [6]) | SSMD.CTG (ISC-enriched organoids [3]; [7]) | also measured
1 | CC(C)(C)Cn1c(N)nc2ccc(-c3[nH]c(C(C)(C)C)nc3-c3ccc(F)cc3)nc21 [LY2228820] | −0.107 | −0.348 | −0.844 | −1.062 | −0.087 | −0.344 | −0.692 | −1.268 | 0.186 | −0.798 | 0.123 | −1.170 | −0.715 | −0.812 | −0.810 | −0.793 | −0.908 | −0.614 | −0.794 | −0.937 | Dose.FC.LYZ.S (ISC-enriched organoids [1]; Dose 0.08 uM): −0.017 log 2 fold change; Dose.FC.LYZ.S (ISC-enriched organoids [1]; Dose 0.40 uM): −0.054 log 2 fold change; Dose.FC.LYZ.S (ISC-enriched organoids [1]; Dose 2.00 uM): −0.130 log 2 fold change; Dose.FC.LYZ.S (ISC-enriched organoids [1]; Dose 10.00 uM): −0.164 log 2 fold change; Dose.FC.LYZ.NS (ISC-enriched organoids [2]; Dose 0.08 uM): 0.065 log 2 fold change; Z.LYZ.NS (ISC-enriched organoids [2]; Dose 0.08 uM): 0.569; Dose.FC.LYZ.NS (ISC-enriched organoids [2]; Dose 0.40 uM): −0.100 log 2 fold change; Z.LYZ.NS (ISC-enriched organoids [2]; Dose 0.40 uM): −0.874; Dose.FC.LYZ.NS (ISC-enriched organoids [2]; Dose 2.00 uM): 0.043 log 2 fold change; Z.LYZ.NS (ISC-enriched organoids [2]; Dose 2.00 uM): 0.377; Dose.FC.LYZ.NS (ISC-enriched organoids [2]; Dose 10.00 uM): −0.126 log 2 fold change; Z.LYZ.NS (ISC-enriched organoids [2]; Dose 10.00 uM): −1.099; Dose.FC.CTG (ISC-enriched organoids [3]; Dose 0.08 uM): −0.299 log 2 fold change; Dose.FC.CTG (ISC-enriched organoids [3]; Dose 0.40 uM): −0.340 log 2 fold change; Dose.FC.CTG (ISC-enriched organoids [3]; Dose 2.00 uM): −0.339 log 2 fold change; Dose.FC.CTG (ISC-enriched organoids [3]; Dose 10.00 uM): −0.332 log 2 fold change
2 | Cc1cnc(NC(=O)Nc2cc(Br)c(C)cc2OC[C@@H]2CNCCO2)cn1 [LY2603618] | 0.056 | −0.953 | −1.737 | −2.300 | 0.065 | −0.885 | −1.421 | −1.890 | −0.044 | −0.697 | −1.609 | −1.826 | −0.010 | −0.567 | −0.946 | −2.347 | −0.013 | −0.880 | −1.281 | −2.490 | Dose.FC.LYZ.S (ISC-enriched organoids [1]; Dose 0.08 uM): 0.009 log 2 fold change; Dose.FC.LYZ.S (ISC-enriched organoids [1]; Dose 0.40 uM): −0.147 log 2 fold change; Dose.FC.LYZ.S (ISC-enriched organoids [1]; Dose 2.00 uM): −0.269 log 2 fold change; Dose.FC.LYZ.S (ISC-enriched organoids [1]; Dose 10.00 uM): −0.356 log 2 fold change; Dose.FC.LYZ.NS (ISC-enriched organoids [2]; Dose 0.08 uM): −0.005 log 2 fold change; Z.LYZ.NS (ISC-enriched organoids [2]; Dose 0.08 uM): −0.046; Dose.FC.LYZ.NS (ISC-enriched organoids [2]; Dose 0.40 uM): −0.091 log 2 fold change; Z.LYZ.NS (ISC-enriched organoids [2]; Dose 0.40 uM): −0.791; Dose.FC.LYZ.NS (ISC-enriched organoids [2]; Dose 2.00 uM): −0.193 log 2 fold change; Z.LYZ.NS (ISC-enriched organoids [2]; Dose 2.00 uM): −1.685; Dose.FC.LYZ.NS (ISC-enriched organoids [2]; Dose 10.00 uM): −0.233 log 2 fold change; Z.LYZ.NS (ISC-enriched organoids [2]; Dose 10.00 uM): −2.026; Dose.FC.CTG (ISC-enriched organoids [3]; Dose 0.08 uM): −0.004 log 2 fold change; Dose.FC.CTG (ISC-enriched organoids [3]; Dose 0.40 uM): −0.238 log 2 fold change; Dose.FC.CTG (ISC-enriched organoids [3]; Dose 2.00 uM): −0.396 log 2 fold change; Dose.FC.CTG (ISC-enriched organoids [3]; Dose 10.00 uM): −0.983 log 2 fold change
3 | Cc1cc(Nc2cc(CN3CCOCC3)c3nc(C)c(Cc4ccc(Cl)cc4F)n3n2)n[nH]1 [LY2784544] | 0.794 | 0.498 | 0.737 | −2.373 | 0.911 | 0.595 | 0.492 | −2.074 | 0.395 | 0.037 | 0.582 | −2.015 | 0.259 | 0.148 | 0.433 | −1.984 | 0.378 | 0.135 | 0.500 | −1.283 | Dose.FC.LYZ.S (ISC-enriched organoids [1]; Dose 0.08 uM): 0.123 log 2 fold change; Dose.FC.LYZ.S (ISC-enriched organoids [1]; Dose 0.40 uM): 0.077 log 2 fold change; Dose.FC.LYZ.S (ISC-enriched organoids [1]; Dose 2.00 uM): 0.114 log 2 fold change; Dose.FC.LYZ.S (ISC-enriched organoids [1]; Dose 10.00 uM): −0.367 log 2 fold change; Dose.FC.LYZ.NS (ISC-enriched organoids [2]; Dose 0.08 uM): 0.132 log 2 fold change; Z.LYZ.NS (ISC-enriched organoids [2]; Dose 0.08 uM): 1.152; Dose.FC.LYZ.NS (ISC-enriched organoids [2]; Dose 0.40 uM): 0.004 log 2 fold change; Z.LYZ.NS (ISC-enriched organoids [2]; Dose 0.40 uM): 0.033; Dose.FC.LYZ.NS (ISC-enriched organoids [2]; Dose 2.00 uM): 0.068 log 2 fold change; Z.LYZ.NS (ISC-enriched organoids [2]; Dose 2.00 uM): 0.591; Dose.FC.LYZ.NS (ISC-enriched organoids [2]; Dose 10.00 uM): −0.280 log 2 fold change; Z.LYZ.NS (ISC-enriched organoids [2]; Dose 10.00 uM): −2.439; Dose.FC.CTG (ISC-enriched organoids [3]; Dose 0.08 uM): 0.108 log 2 fold change; Dose.FC.CTG (ISC-enriched organoids [3]; Dose 0.40 uM): 0.062 log 2 fold change; Dose.FC.CTG (ISC-enriched organoids [3]; Dose 2.00 uM): 0.181 log 2 fold change; Dose.FC.CTG (ISC-enriched organoids [3]; Dose 10.00 uM): −0.831 log 2 fold change
4 | O=C(C[S+]([O-])Cc1ccco1)NC/C=C\COc1cc(CN2CCCCC2)ccn1 (centres unmarked) [Lafutidine] | 0.339 | 0.506 | 0.491 | −0.093 | 0.331 | 0.460 | 0.503 | −0.111 | 0.285 | 0.064 | 0.359 | 0.581 | 0.363 | 0.346 | 0.329 | −0.235 | 0.452 | 0.476 | 0.505 | −0.249 | 
5 | Nc1cccc2c1CN(C1CCC(=O)NC1=O)C2=O (centres unmarked) [Lenalidomide (CC-5013)] | 0.639 | 1.137 | 0.162 | −0.290 | 0.593 | 0.873 | 0.193 | −0.298 | 1.215 | 0.674 | 0.472 | −0.318 | 0.110 | −0.037 | −0.596 | −0.754 | 0.169 | −0.049 | −0.710 | −0.802 | Dose.FC.LYZ.S (ISC-enriched organoids [1]; Dose 0.08 uM): 0.099 log 2 fold change; Dose.FC.LYZ.S (ISC-enriched organoids [1]; Dose 0.40 uM): 0.176 log 2 fold change; Dose.FC.LYZ.S (ISC-enriched organoids [1]; Dose 2.00 uM): 0.025 log 2 fold change; Dose.FC.LYZ.S (ISC-enriched organoids [1]; Dose 10.00 uM): −0.045 log 2 fold change; Dose.FC.LYZ.NS (ISC-enriched organoids [2]; Dose 0.08 uM): 0.147 log 2 fold change; Z.LYZ.NS (ISC-enriched organoids [2]; Dose 0.08 uM): 1.283; Dose.FC.LYZ.NS (ISC-enriched organoids [2]; Dose 0.40 uM): 0.099 log 2 fold change; Z.LYZ.NS (ISC-enriched organoids [2]; Dose 0.40 uM): 0.863; Dose.FC.LYZ.NS (ISC-enriched organoids [2]; Dose 2.00 uM): 0.071 log 2 fold change; Z.LYZ.NS (ISC-enriched organoids [2]; Dose 2.00 uM): 0.615; Dose.FC.LYZ.NS (ISC-enriched organoids [2]; Dose 10.00 uM): −0.041 log 2 fold change; Z.LYZ.NS (ISC-enriched organoids [2]; Dose 10.00 uM): −0.360; Dose.FC.CTG (ISC-enriched organoids [3]; Dose 0.08 uM): 0.046 log 2 fold change; Dose.FC.CTG (ISC-enriched organoids [3]; Dose 0.40 uM): −0.016 log 2 fold change; Dose.FC.CTG (ISC-enriched organoids [3]; Dose 2.00 uM): −0.250 log 2 fold change; Dose.FC.CTG (ISC-enriched organoids [3]; Dose 10.00 uM): −0.316 log 2 fold change
